Test results taken from patent US6380249B1 (dated 2002).

SMILES | melting point [°C]
O=C(O)C(=O)CC(=O)c1ccccc1OCc1ccccc1 | 136 to 138
O=C(O)C(=O)CC(=O)c1cccc(OCc2ccc(F)cc2)c1 | 157 to 158
O=C(O)C(=O)CC(=O)c1ccc2ccn(Cc3ccc(F)cc3)c2c1 | 173 to 174
O=C(O)C(=O)CC(=O)c1cccc2c1ccn2Cc1ccc(F)cc1 | 156 to 157
O=C(O)C(=O)CC(=O)c1cccc(OCc2ccc(F)c(F)c2)c1 | 181 to 182
COCCOc1c(OC)cc(Cc2ccccc2)cc1C(=O)CC(=O)C(=O)O | 83 to 85
COc1cc(OCc2ccccc2)cc(C(=O)CC(=O)C(=O)O)c1 | 101 to 102
COc1cc(Cc2ccccc2)cc(C(=O)CC(=O)C(=O)O)c1OCCSC | 99 to 100
O=C(O)C(=O)CC(=O)c1cc(Cc2ccccc2)cc2c1OCCO2 | 154 to 155
C=CCCCc1cc(OC)c(OC)c(C(=O)CC(=O)C(=O)O)c1 | 75 to 76
COc1cc(CC2CC2)cc(C(=O)CC(=O)C(=O)O)c1OC | 101 to 103
O=C(O)C(=O)CC(=O)c1cc(Cc2ccccc2)cc2c1OCC(O)CO2 (racemic) | 182 to 183
